# Measurements taken from US10975068B2, “6-aminopyridin-3-yl thiazoles as modulators of RORγT” (Janssen Pharmaceutica NV, priority 2016, dated 2021).
# Key:
# [1] = biological target: human RORγt ligand binding domain (RORγt LBD) (Homo sapiens (Human), UniProt P51449); test: RORγt ThermoFluor® assay (thermal shift binding); conditions: for Kd: read-out: ThermoFluor® Assay, Kd
# Outline: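 His-tagged human RORγt LBD (0.065 mg/mL) with 60 μM 1,8-ANS in 100 mM Hepes pH 7.0, 10 mM NaCl, 2.5 mM GSH, 0.002% Tween-20 was heated at 1 °C/min.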
# [2] = system: IL-17 production by CD4 T cells; test: Human Th17 assay; type: cell-based; conditions: read-out: Human Th17 Assay, IC50
# Excerpt: The human Th17 assay tests the effect of RORγt modulatory compounds on IL-17 production by CD4 T cells under conditions which favor Th17 differentiation. Total CD4^+ T cells were isolated from the peripheral blood mononuclear cells (PBMC) of healthy donors using a CD4^+ T cell isolation kit II, following the manufacturer's instructions (Miltenyi Biotec). Cells were resuspended in a medium of RPMI-1640 supplemented with 10% fetal bovine serum, penicillin, streptomycin, glutamate, and β-mercaptoethanol and were added to 96-well plates at 1.5×10^5 per 100 μL per well. 50 μL of compound at titrated concentrations in DMSO were added into each well at final DMSO concentration at 0.2%. Cells were incubated for 1 hour, then 50 μL of Th17 cell differentiation medium was added to each well. The final concentrations of antibodies and cytokines (R&D Systems) in differentiation medium were: 3×10^6/mL anti-CD3/CD28 beads (prepared using human T cell activation/expansion kit, Miltenyi Biotec), 10 μg/mL anti-IL4, 10 μg/mL anti-IFNγ, 10 ng/mL IL1β, 10 ng/mL IL23, 50 ng/mL IL6, 3 ng/mL TGFβ and 20 U/mL IL2. Cells were cultured at 37° C. and 5% CO2 for 3 days. Supernatants were collected and the accumulated IL-17 in culture was measured by using MULTI-SPOT® Cytokine Plate following manufacture's instruction (Meso Scale Discovery). The plate was read using Sector Imager 6000, and IL-17 concentration was extrapolated from the standard curve. The IC50s were determined by GraphPad.
# full-length human RORγt [3] = biological target: T1, full-length human RORγt (Homo sapiens (Human), UniProt P51449); test: RORγt (full-length human) reporter assay, Conditions A; type: cell-based; conditions: for IC50: read-out: RORγt (FL) Reporter Assay A, IC50; for inhibition at 6 µM: read-out: RORγt (FL) Reporter Assay A, % inhibition @ 6 μM
# T1 sequence (P51449 other isoform, or with tags, fused parts or gaps): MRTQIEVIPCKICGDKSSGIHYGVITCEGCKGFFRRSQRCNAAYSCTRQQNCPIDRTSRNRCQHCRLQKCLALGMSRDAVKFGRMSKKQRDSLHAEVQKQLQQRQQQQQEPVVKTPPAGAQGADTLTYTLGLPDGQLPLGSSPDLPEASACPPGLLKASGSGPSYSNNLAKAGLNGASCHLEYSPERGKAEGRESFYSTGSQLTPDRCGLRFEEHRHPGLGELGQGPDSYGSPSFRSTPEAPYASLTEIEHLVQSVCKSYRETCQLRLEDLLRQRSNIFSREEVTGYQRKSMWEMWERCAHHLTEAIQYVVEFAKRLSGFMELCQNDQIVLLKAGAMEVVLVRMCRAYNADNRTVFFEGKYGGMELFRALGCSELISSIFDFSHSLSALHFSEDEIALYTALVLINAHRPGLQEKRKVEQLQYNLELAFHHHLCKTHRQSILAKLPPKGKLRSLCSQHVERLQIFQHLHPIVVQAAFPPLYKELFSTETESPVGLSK
# Excerpt: RORγt (Full-Length Human) Reporter Assay:
# Cells used in this assay were transiently co-transfected with three different plasmids, one expressing the GAL4-DNA binding domain (DBD)-RORγt fusion protein under control of a CMV promoter (NH2-Gal4-DBD:RORC-COOH in pCMV-BD, Stratagene #211342), and two reporter plasmids—the firefly luciferase reporter under control of a GAL4 promoter (pFR-Luc 2×GAL4) and Renilla luciferase reporter under control of CMV promoter (pRL-CMV, Promega # E2261). The full-length coding sequence was used for human RORγt, i.e., nucleotides 142-1635 of human RORγt, transcript variant 2, NCBI Accession: NM_001001523.1 (SEQ ID NO:1). HEK293T cells were plated at 35000 per well in 96-well plate in medium of MEM with 8.6% FBS. After 18-22 hours incubation, the transfection was carried out by using a PEI solution with 170.5 ng total DNA/well (50 ng pCMV-BD-ROR plus 20 ng of pFR-Luc reporter and 0.5 ng of pRL-CMV reporter plus 100 ng Carrier DNA (Clontech #630440) for each well). 4-6 hours after transfection, cells were treated with compounds for overnight in the medium with final concentration of FBS 1.1% and DMSO 0.1%. After overnight (16 to 20 hours) incubation, media were removed and cells were lysed with 20 μL 1× Passive Lysis Buffer (Promega) for 10-15 minutes. Luminescence was measured using a BMG LUMIstar OPTIMA plate reader, after addition of 75 μL/well firefly luciferase buffer, followed by 75 μL/well Renilla luciferase buffer. To calculate the effect of compounds on RORγt activity, firefly values were normalized against values of DMSO only and values of reference compound at saturating concentration, then further normalized against Renilla signals. IC50s were generated by plotting final Renilla normalized data against compound concentration and percent inhibition was calculated against DMSO control.
# full-length human RORγt [4] = biological target: T1, full-length human RORγt; test: RORγt (full-length human) reporter assay, Conditions B or C; type: cell-based; conditions: for IC50: read-out: RORγt (FL) Reporter Assay B or C, IC50
# Outline: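 HEK293T cells transiently co-transfected with GAL4-DBD–full-length human RORγt (nt 142-1635, NM_001001523.1) plus GAL4-firefly and CMV-Renilla luciferase reporters; compounds added 4-6 h post-transfection for 16-20 h in 1.3% FBS, 0.1% DMSO. Firefly signal normalized to DMSO and saturating reference compound, then to Renilla; IC50 from concentration plots.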
# mice = conditions: cited from earlier work
# obese diabetic mice = conditions: cited from earlier work
# Sequence of human RORγt ligand binding domain (RORγt LBD) (P51449 other isoform, or with tags, fused parts or gaps): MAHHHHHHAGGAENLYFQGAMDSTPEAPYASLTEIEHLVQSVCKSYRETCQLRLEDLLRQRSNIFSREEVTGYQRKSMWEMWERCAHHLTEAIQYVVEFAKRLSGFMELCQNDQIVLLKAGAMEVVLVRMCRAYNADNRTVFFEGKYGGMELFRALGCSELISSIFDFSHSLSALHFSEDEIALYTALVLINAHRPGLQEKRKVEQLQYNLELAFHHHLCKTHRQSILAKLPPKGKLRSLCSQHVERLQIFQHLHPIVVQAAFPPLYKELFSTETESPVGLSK
Compound,Kd [1] [nM],IC50 [2] [nM],inhibition at 6 µM (full-length human RORγt [3]; Conditions A) [%],IC50 (full-length human RORγt [3]; Conditions A) [nM],other results
"CC(C)Nc1cc(C(F)(F)F)c(-c2sc(C(=O)NCC(C)(C)O)nc2C(=O)N2CCC(F)CC2)cn1 [Example 12, 4-(4-Fluoropiperidine-1-carbonyl)-N-(2-hydroxy-2-methylpropyl)-5-(6-(isopropylamino)-4-(trifluoromethyl)pyridin-3-yl)thiazole-2-carboxamide]",63,190,92,,fold improvement in RORγt Thermofluor® binding assay activity ([1]; compared to Comparator Example 3): over 800 fold; IC50 (full-length human RORγt [3]; HEK293T cells): 850 nM
"CC(C)(O)CNC(=O)c1nc(C(=O)N2CCC(F)CC2)c(-c2cnc(NC3CCCCC3)cc2C(F)(F)F)s1 [Example 3, 5-(6-(Cyclohexylamino)-4-(trifluoromethyl)pyridin-3-yl)-4-(4-fluoropiperidine-1-carbonyl)-N-(2-hydroxy-2-methylpropyl)thiazole-2-carboxamide]",9.6,40,,35,"RORγt (FL) Reporter Assay A, % inhibition (value marked **) (full-length human RORγt [3]; Conditions A, marked **: footnote not shown): 106** %"
"CC(C)(O)CNC(=O)c1nc(C(=O)N2CCC(F)CC2)c(-c2cnc(NC3CCCCC3)cc2C2CC2)s1 [Example 64, 5-(6-(Cyclohexylamino)-4-cyclopropylpyridin-3-yl)-4-(4-fluoropiperidine-1-carbonyl)-N-(2-hydroxy-2-methylpropyl)thiazole-2-carboxamide]",17,220,96,63,
"C[C@H]1CCCN1C(=O)c1nc(C(=O)NCC(C)(C)O)sc1-c1cnc(NC2CCCCC2)cc1C(F)(F)F [Example 19, (S)-5-(6-(Cyclohexylamino)-4-(trifluoromethyl)pyridin-3-yl)-N-(2-hydroxy-2-methylpropyl)-4-(2-methylpyrrolidine-1-carbonyl)thiazole-2-carboxamide]",4.4,40,99,32,
CC(=O)Nc1nc(C)c(S(=O)(=O)Nc2ccc(C(O)(C(F)(F)F)C(F)(F)F)cc2)s1 [SR1001],,,,,Th17-dependent learned helplessness (mice): reduced Th17-dependent learned helplessness
CC(=O)N1CCN(Cc2ccc(-c3ccc(C(O)(C(F)(F)F)C(F)(F)F)cc3)cc2)CC1 [SR1555],,,,,body weight (obese diabetic mice): reduced; fat mass (obese diabetic mice): significant reduction; food intake (obese diabetic mice): modest reduction; insulin sensitivity (obese diabetic mice): improved

# Second part, led by results:
Kd [1] [nM],IC50 [2] [nM],inhibition at 6 µM (full-length human RORγt [3]; Conditions A) [%],IC50 (full-length human RORγt [3]; Conditions A) [nM],Compound,other results
,20,,,"C[C@H]1CCCCN1C(=O)c1nc(C(=O)NCC(C)(C)O)sc1-c1cnc(NC2CCCCC2)cc1C1CC1 [Example 76, (S)-5-(6-(Cyclohexylamino)-4-cyclopropylpyridin-3-yl)-N-(2-hydroxy-2-methylpropyl)-4-(2-methylpiperidine-1-carbonyl)thiazole-2-carboxamide]","IC50 (full-length human RORγt [4]; Conditions B or C): 3.8 nM; inhibition at 6 µM (full-length human RORγt [4]; read-out: RORγt (FL) Reporter Assay B or C, % inhibition @ 6 μM, Conditions B or C, @ 6 μM): 108%"
,14,,,"C[C@H]1CCCCN1C(=O)c1nc(C(=O)NC2CCS(=O)(=O)CC2)sc1-c1cnc(NC2CCCCC2)cc1C1CC1 [Example 75, (S)-5-(6-(Cyclohexylamino)-4-cyclopropylpyridin-3-yl)-N-(1,1-dioxidotetrahydro-2H-thiopyran-4-yl)-4-(2-methylpiperidine-1-carbonyl)thiazole-2-carboxamide]","RORγt (FL) Reporter Assay B or C, % inhibition (value marked **) (full-length human RORγt [4]; Conditions B or C, marked **: footnote not shown): 108** %; IC50 (full-length human RORγt [4]; Conditions B or C): 7 nM"
,19,,,"CC[C@H](Nc1cc(C(F)F)c(-c2sc(C(=O)NCC(C)(C)O)nc2C(=O)N2CCCC[C@@H]2C)cn1)C(F)(F)F [Example 91, 5-(4-(Difluoromethyl)-6-(((S)-1,1,1-trifluorobutan-2-yl)amino)pyridin-3-yl)-N-(2-hydroxy-2-methylpropyl)-4-((S)-2-methylpiperidine-1-carbonyl)thiazole-2-carboxamide]","RORγt (FL) Reporter Assay B or C, % inhibition (value marked *) (full-length human RORγt [4]; Conditions B or C, marked *: footnote not given): 96* %"
